Source: ChEMBL document CHEMBL4765309, “New deferiprone derivatives as multi-functional cholinesterase inhibitors: design, synthesis and in vitro evaluation” (Eur J Med Chem, 2020)
Calls of active or inactive are those of the source. No cut-off for these calls is given here.

Legend:
[1] = Metal chelating activity assessed as compound-Zn2+ complex formation at 2 mM in presence of Zn(NO3)2.6H2O by UV-vis spectrophotometric titration analysis
[2] = Metal chelating activity assessed as compound-Fe3+ complex formation at 1.7 mM in presence of FeCl3.6H2O by UV-vis spectrophotometric titration analysis
[3] = molecular target: Cholinesterase (Equus caballus) (UniProt P81908); experiment: Mixed type inhibition of equine BChE using varying level of acetylthiocholine as substrate by Dixon plot analysis
Cholinesterase = Cholinesterase (Equus caballus, UniProt P81908); experiment: Inhibition of equine BChE assessed as inhibition constant using acetylthiocholine as substrate measured for 0.5 to 1.5 mins by Ellman's method
[4] = Cytotoxicity against human U-87 MG cells assessed as cell viability at 10 uM incubated for 24 hrs by MTT assay; type: cell-based, U-87MG ATCC; settings: read-out: Activity
[5] = Metal chelating activity assessed as compound-Fe3+ complex formation by measuring mole fraction that causes maximum variation in absorbance in presence of FeCl3.6H2O by Job's plot analysis
Acetylcholinesterase = Acetylcholinesterase (Electrophorus electricus, UniProt O42275); experiment: Inhibition of electric eel AChE assessed as inhibition constant using acetylthiocholine as substrate measured for 0.5 to 1.5 mins by Ellman's method
[6] = Metal chelating activity assessed as compound-Cu2+ complex formation at 2 mM in presence of CuSO4.5H2O by UV-vis spectrophotometric titration analysis
[7] = Metal chelating activity assessed as compound-Fe3+ complex formation at 2 mM in presence of FeCl3.6H2O by UV-vis spectrophotometric titration analysis
[8] = Metal chelating activity assessed as compound-Cu2+ complex formation by measuring mole fraction that causes maximum variation in absorbance in presence of CuSO4.5H2O by Job's plot analysis

Cholinesterase, sequence (P81908 whole entry): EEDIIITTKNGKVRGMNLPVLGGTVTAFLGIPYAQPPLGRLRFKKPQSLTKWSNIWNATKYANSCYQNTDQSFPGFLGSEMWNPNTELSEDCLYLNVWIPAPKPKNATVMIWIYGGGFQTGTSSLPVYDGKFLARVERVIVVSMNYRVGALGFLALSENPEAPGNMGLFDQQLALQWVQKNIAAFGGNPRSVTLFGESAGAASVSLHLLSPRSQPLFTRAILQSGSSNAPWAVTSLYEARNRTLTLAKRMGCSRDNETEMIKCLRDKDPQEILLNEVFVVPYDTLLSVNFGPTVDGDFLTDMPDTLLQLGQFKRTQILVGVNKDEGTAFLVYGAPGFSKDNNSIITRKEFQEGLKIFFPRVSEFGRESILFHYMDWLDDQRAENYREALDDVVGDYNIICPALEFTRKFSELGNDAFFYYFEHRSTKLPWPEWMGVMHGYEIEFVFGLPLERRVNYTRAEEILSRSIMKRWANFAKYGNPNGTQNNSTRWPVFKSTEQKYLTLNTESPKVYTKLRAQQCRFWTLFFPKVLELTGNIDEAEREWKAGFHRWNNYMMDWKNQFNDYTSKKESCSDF
Cholinesterase (Equus caballus), sequence (P81908 whole entry): as above
Acetylcholinesterase, sequence (O42275 whole entry): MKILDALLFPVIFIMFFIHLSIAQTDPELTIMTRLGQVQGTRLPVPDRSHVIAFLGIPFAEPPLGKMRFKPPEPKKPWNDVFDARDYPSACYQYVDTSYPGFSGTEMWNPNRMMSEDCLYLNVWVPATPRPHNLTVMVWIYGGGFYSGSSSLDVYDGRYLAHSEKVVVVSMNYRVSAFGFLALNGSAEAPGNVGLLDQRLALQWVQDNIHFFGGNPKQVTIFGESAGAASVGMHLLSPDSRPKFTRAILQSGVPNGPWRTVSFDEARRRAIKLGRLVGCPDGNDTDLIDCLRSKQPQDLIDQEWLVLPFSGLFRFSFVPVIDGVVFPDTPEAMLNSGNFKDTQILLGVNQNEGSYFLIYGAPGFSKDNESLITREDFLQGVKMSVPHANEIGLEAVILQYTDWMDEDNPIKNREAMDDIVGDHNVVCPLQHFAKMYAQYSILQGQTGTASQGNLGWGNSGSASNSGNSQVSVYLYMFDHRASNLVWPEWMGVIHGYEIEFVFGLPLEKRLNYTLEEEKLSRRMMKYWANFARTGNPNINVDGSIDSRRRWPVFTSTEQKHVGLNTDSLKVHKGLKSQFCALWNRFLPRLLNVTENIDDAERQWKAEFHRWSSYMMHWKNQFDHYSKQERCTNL

Structure (SMILES)	Activity [1]	Activity [2]	inhibition [3]	Ki (Cholinesterase) [nM]	viability at 24 h, 10 µM [4] [%]	Activity (mole fraction) [5]	Ki (Acetylcholinesterase) [nM]	Activity [6]	Activity [7]	Activity (mole fraction) [8]
Cc1c(OCc2ccccc2)c(=O)ccn1CCCCCCNCc1ccccc1	inactive	Active	Active	2360	> 75	0.52	788			
Cc1c(OCc2ccccc2)c(=O)ccn1CCCCCCNc1ccnc(NCc2ccccc2)n1			Active	258	> 75	0.67		Active	Active	
COc1ccccc1CNCCCCCCn1ccc(=O)c(OCc2ccccc2)c1C			Active	910	> 75		2790			
COc1ccccc1CNCCCCCCn1ccc(=O)c(O)c1C					> 75		1340			
Cc1c(O)c(=O)ccn1CCCCCCNCc1ccccc1	inactive				> 75	0.53	1370	Active	Active	0.37
Cc1c(OCc2ccccc2)c(=O)ccn1CCCCCCNc1ccccn1			Active	182	> 75	0.7			Active	
Cc1c(O)c(=O)ccn1CCCCCCNc1ccnc(NCc2ccccc2)n1	Active		Active	920	> 75	0.5				0.64
Cc1c(OCc2ccccc2)c(=O)ccn1CCCCCCNc1nccc(Cl)n1			Active	1080	> 75				Active	
Cc1c(OCc2ccccc2)c(=O)ccn1CCCCNCc1ccccc1			Active	450	> 75					
